Assay results published in ChEMBL document CHEMBL1649413, “Structure-activity relationship of 4(5)-aryl-2-amino-1H-imidazoles, N1-substituted 2-aminoimidazoles and imidazo[1,2-a]pyrimidinium salts as inhibitors of biofilm formation by Salmonella typhimurium and Pseudomonas aeruginosa” (J Med Chem, 2011).
pIC50: −log10 of the molar value. Activity calls are given as the source filed them. The rule behind the calls is not given here.

Assays:
[1] = test system: Salmonella typhimurium; test: Antibiofilm activity in Salmonella Typhimurium ATCC 14028 assessed as inhibition of biofilm formation at 25 degC after 24 hrs; assay type: functional, organism-based, Salmonella enterica subsp. enterica serovar Typhimurium; details: Salmonella enterica, ATCC 14028, 24 h
[2] = test system: Salmonella typhimurium; test: Antimicrobial activity against Salmonella Typhimurium ATCC 14028 assessed as inhibition of planktonic growth at 40 uM at 25 degC after 24 hrs; assay type: functional, organism-based; details: Salmonella enterica subsp. enterica serovar Typhimurium
[3] = test system: Salmonella typhimurium; test: Antimicrobial activity against Salmonella Typhimurium ATCC 14028 assessed as inhibition of planktonic growth at 80 uM at 25 degC after 24 hrs; assay type: functional, organism-based; details: Salmonella enterica subsp. enterica serovar Typhimurium
[4] = test system: Salmonella typhimurium; test: Antimicrobial activity against Salmonella Typhimurium ATCC 14028 assessed as inhibition of planktonic growth at 20 uM at 25 degC after 24 hrs; assay type: functional, organism-based; details: Salmonella enterica subsp. enterica serovar Typhimurium
[5] = test system: Salmonella typhimurium; test: Antimicrobial activity against Salmonella Typhimurium ATCC 14028 assessed as inhibition of planktonic growth at 10 uM at 25 degC after 24 hrs; assay type: functional, organism-based; details: Salmonella enterica subsp. enterica serovar Typhimurium
[6] = test system: Salmonella typhimurium; test: Antimicrobial activity against Salmonella Typhimurium ATCC 14028 assessed as inhibition of planktonic growth at 4 uM at 25 degC after 24 hrs; assay type: functional, organism-based; details: Salmonella enterica subsp. enterica serovar Typhimurium
[7] = test system: Pseudomonas aeruginosa; test: Antimicrobial activity against Pseudomonas aeruginosa assessed as inhibition of planktonic growth at 80 uM at 25 degC after 24 hrs; assay type: functional, organism-based
[8] = test system: Pseudomonas aeruginosa; test: Antibiofilm activity in Pseudomonas aeruginosa assessed as inhibition of biofilm formation at 25 degC after 24 hrs; assay type: functional, organism-based
[9] = test system: Pseudomonas aeruginosa; test: Antimicrobial activity against Pseudomonas aeruginosa assessed as inhibition of planktonic growth at 20 uM at 25 degC after 24 hrs; assay type: functional, organism-based
[10] = test system: Pseudomonas aeruginosa; test: Antimicrobial activity against Pseudomonas aeruginosa assessed as inhibition of planktonic growth at 40 uM at 25 degC after 24 hrs; assay type: functional, organism-based
[11] = test system: Pseudomonas aeruginosa; test: Antimicrobial activity against Pseudomonas aeruginosa assessed as inhibition of planktonic growth at 5 uM at 25 degC after 24 hrs; assay type: functional, organism-based
[12] = test system: Pseudomonas aeruginosa; test: Antimicrobial activity against Pseudomonas aeruginosa assessed as inhibition of planktonic growth at 10 uM at 25 degC after 24 hrs; assay type: functional, organism-based

For `Nc1nc(-c2ccc(F)cc2)c(-c2ccc(F)cc2)[nH]1`, the pIC50 [1] was 4.74, the inhibition [2] was “Active” and the inhibition [3] was “Active”. For the same compound, the inhibition [4] was “Active”, the inhibition [5] was “inactive” and the inhibition [6] was “inactive”.
`Nc1ncc(-c2ccccc2)n1C1CCC1` was tested, and the pIC50 [1] was 3.93, the inhibition [7] was “inactive” and the pIC50 [8] was 4.70. The inhibition [9] was “inactive” and the inhibition [10] was “inactive”.
With `CCCCCCCCCCCCCCn1c(-c2ccc(Cl)cc2)cnc1N` the pIC50 [1] was 3.34, the inhibition [7] was “inactive” and the pIC50 [8] was 4.72. The inhibition [11] was “inactive” and the inhibition [10] was “inactive”.
`Nc1ncc(-c2ccccc2)n1C1CCCCCCC1` was tested, and the pIC50 [1] was 4.39, the inhibition [7] was “inactive” and the inhibition [3] was “Active”. The inhibition [4] was “inactive”, the pIC50 [8] was 5.35 and the inhibition [5] was “inactive”. The inhibition [11] was “inactive” and the inhibition [10] was “inactive”.
For `CCCCCCn1c(-c2ccc(Cl)cc2)cnc1N`, the pIC50 [1] was 5.31, the inhibition [12] was “inactive” and the pIC50 [8] was 5.27. The inhibition [5] was “Active”, the inhibition [11] was “inactive” and the inhibition [6] was “Active”.
In the case of `CCCCCCCCCn1c(-c2ccc(-c3ccccc3)cc2)cnc1N`, the pIC50 [1] was 4.79, the inhibition [2] was “Active” and the inhibition [3] was “Active”. The inhibition [4] was “inactive” and the pIC50 [8] was < 3.40.
With `Nc1ncc(-c2ccccc2)n1C1CCCCCC1` the pIC50 [1] was 4.57, the inhibition [12] was “inactive” and the inhibition [7] was “inactive”. The pIC50 [8] was 4.85 and the inhibition [10] was “inactive”.
With `CCn1c(-c2ccc(-c3ccccc3)cc2)cnc1N` the pIC50 [1] was 4.85, the inhibition [2] was “Active” and the inhibition [3] was “Active”. The inhibition [4] was “inactive”, the pIC50 [8] was 4.02 and the inhibition [5] was “inactive”. The inhibition [6] was “inactive”.
For `CCCCCCCn1c(-c2ccc(Cl)cc2)cnc1N`, the pIC50 [1] was 5.02, the inhibition [12] was “Active” and the pIC50 [8] was 5.59. For the same compound, the inhibition [5] was “Active”, the inhibition [11] was “inactive” and the inhibition [6] was “inactive”.
With `CCCCCCCCn1c(-c2ccc(Cl)cc2)cnc1N` the pIC50 [1] was 5.23, the inhibition [12] was “Active” and the inhibition [4] was “Active”. The pIC50 [8] was 5.40, the inhibition [5] was “Active” and the inhibition [11] was “inactive”. For the same compound, the inhibition [9] was “Active” and the inhibition [6] was “Active”.
For `CCCCCCCC[n+]1c(-c2ccc(-c3ccc([N+](=O)[O-])cc3)cc2)cn2cccnc21.[O-][Cl+3]([O-])([O-])[O-]`, the pIC50 [1] was 5.82, the inhibition [12] was “Active” and the pIC50 [8] was 6.00. For the same compound, the inhibition [5] was “Active”, the inhibition [11] was “Active” and the inhibition [9] was “Active”. The inhibition [10] was “Active” and the inhibition [6] was “Active”.
In the case of `CCCCCCCCCCn1c(-c2ccc(-c3ccccc3)cc2)cnc1N`, the pIC50 [1] was 5.24, the inhibition [7] was “inactive” and the inhibition [2] was “inactive”. For the same compound, the inhibition [4] was “inactive”, the pIC50 [8] was < 3.40 and the inhibition [11] was “inactive”. For the same compound, the inhibition [10] was “inactive” and the inhibition [6] was “inactive”.
In the case of `Nc1ncc(-c2ccc(Cl)cc2)n1C1CCC1`, the pIC50 [1] was 4.94, the inhibition [7] was “Active” and the inhibition [2] was “Active”. The inhibition [3] was “Active”, the pIC50 [8] was 5.22 and the inhibition [5] was “inactive”. The inhibition [11] was “inactive” and the inhibition [10] was “inactive”.
`Nc1ncc(-c2ccccc2)n1C1CCCCCCCCCCC1` was tested, and the pIC50 [1] was 4.84, the inhibition [2] was “inactive” and the inhibition [3] was “inactive”. The pIC50 [8] was < 3.10 and the inhibition [5] was “inactive”.
With `Nc1nc(-c2ccc(Cl)cc2)c(-c2ccc(C(F)(F)F)cc2)[nH]1` the pIC50 [1] was 4.97, the inhibition [2] was “Active” and the inhibition [3] was “Active”. The inhibition [4] was “Active”, the inhibition [5] was “Active” and the inhibition [6] was “inactive”.
